Source: patent US7741337B2, “Azonafide derivatives, methods for their production and pharmaceutical compositions therefrom” (Unibioscreen S.A., priority 2005, dated 2010)
pIC50: −log10 of the molar value. Counter-ions that a name gives are not always drawn.

Columns and labels:
[1] = system: human cancer cell lines Hs683, U-373MG, HCT-15, LoVo, A549 and MCF-7; experiment: MTT test, effect on overall cell growth (mean of six cell lines, examples 3 to 26); assay type: cell-based; settings: mean of six cell lines Hs683, U-373MG, A549, MCF-7, 72 hours incubation, range of molar concentrations resulting in 50% inhibition of overall tumor cells growth
Protocol: (§1) MTT tests were performed in order to rapidly, i.e. within 5 days, measure the effect of azonafide derivatives of this invention on the overall cell growth. The test measures the number of metabolically active living cells that are able to transform the yellow product 3-(4,5-dimethylthiazol-2-yl)-2,5-diphenyl tetrazolium bromide (herein referred as MTT) into the blue product formazan dye by mitochondrial reduction. The amount of formazan obtained at the end of the experiment, measured by means of a spectrophotometer, is directly proportional to the number of living cells. Optical density determination thus enables a quantitative measurement of the effect of the investigated compounds as compared to the control condition (untreated cells) and/or to other reference compounds.
(§2) Height human cancer cell lines described in table 1 were used in the following MTT tests. These cell lines cover six histological cancer types, being prostate, glioma, pancreas, colon, lung and breast cancers. Cells were allowed to grow in 96-well micro-wells with a flat bottom with an amount of 100 μl of cell suspension per well with 1,000 to 4,000 cells/well depending on the cell type used. Each cell line was seeded in a well known MEM 5% serum culture medium.
(§3) The detailed experimental procedure was as following: after a 24-hour period of incubation at 37° C., the culture medium was replaced by 100 μl of fresh medium in which the compound to be tested was dissolved at the following molar concentrations: 10^−9 M, 5.10^−9 M, 10^−8 M, 5.10^−8 M, 10^−7 M, 5.10^−7 M, 10^−6 M, 5.10^−6 M and 10^−5 M. Each experiment was repeated 6 times.
(§4) After 72 hours of incubation at 37° C. with (experimental conditions) or without (control condition) the compound to be tested, the medium was replaced by 100 μl MTT dissolved in RPMI at a concentration of 1 mg/ml. The micro-wells were subsequently incubated during 3 hours at 37° C. and centrifuged at 400 g during 10 minutes. MTT was removed and formazan crystals formed were dissolved in 100 μl DMSO. The micro-wells were shaken for 5 minutes and read on a spectrophotometer at wavelengths of 570 nm (maximum formazan absorbance) and 630 nm (back-ground noise).
(§5) For each experimental condition, the mean optical density was calculated, as well as the percentage of remaining living cells in comparison with the control.
(§6) IC50 values for compounds of examples 3 to 26 were obtained on cell lines Hs683, U-373MG, HCT-15, LoVo, A549 and MCF-7 described in Table 1. IC50 values for compounds from examples 27 to 45 were obtained on cell lines PC3, U-373MG, BxPC3, LoVo, A549 and MCF-7 described in Table 1.

[2] = system: human cancer cell lines PC3, U-373MG, BxPC3, LoVo, A549 and MCF-7; experiment: MTT test, effect on overall cell growth (mean of six cell lines, examples 27 to 45); assay type: cell-based; settings: mean of six cell lines PC3, U-373MG, A549, MCF-7, 72 hours incubation, range of molar concentrations resulting in 50% inhibition of overall tumor cells growth
Protocol: as §1, §2, §3, §4, §5, §6

SMILES: CN(C)CCN1C(=O)c2cccc3cc4c(N)cccc4c(c23)C1=O [Example 4, 8-amino-2-[2-(dimethylamino)ethyl]-1H-dibenzo[de,h]isoquinoline-1,3(2H)-dione, reference compound]
- pIC50 [1]: 5.30 to 6.00

SMILES: CN(C)CCN1C(=O)c2cccc3cc4c(NC(=O)NC(=O)c5ccccc5)cccc4c(c23)C1=O [Example 16, N-({2-[2-(dimethylamino)ethyl]-1,3-dioxo-2,3-dihydro-1H-dibenzo[de,h]isoquinolin-8-yl}carbamoyl)benzamide hydrochloride]
- pIC50 [1]: 5.30 to 6.00

SMILES: CN(C)CCN1C(=O)c2cccc3cc4cccc(NC(=O)Oc5ccccc5)c4c(c23)C1=O [Example 18, phenyl {2-[2-(dimethylamino)ethyl]-1,3-dioxo-2,3-dihydro-1H-dibenzo[de,h]isoquinolin-11-yl}carbamate]
- pIC50 [1]: < 5.00

SMILES: CCCCCCCCCC(=O)CC(=O)Nc1cccc2cc3cccc4c3c(c12)C(=O)N(CCN(C)C)C4=O [Example 20, N-{2-[2-(dimethylamino)ethyl]-1,3-dioxo-2,3-dihydro-1H-dibenzo[de,h]isoquinolin-11-yl}-3-oxododecanamide]
- pIC50 [1]: < 5.00

SMILES: CN(C)CCN1C(=O)c2cccc3cc4cccc(NC(=O)CC(=O)CCc5ccccc5)c4c(c23)C1=O [Example 22, N-{2-[2-(dimethylamino)ethyl]-1,3-dioxo-2,3-dihydro-1H-dibenzo[de,h]isoquinolin-11-yl}-3-oxo-5-phenylpentanamide]
- pIC50 [1]: < 5.00

SMILES: CCOC(=O)CCC(=O)CC(=O)Nc1cccc2cc3cccc4c3c(c12)C(=O)N(CCN(C)C)C4=O [Example 23, ethyl 6-({2-[2-(dimethylamino)ethyl]-1,3-dioxo-2,3-dihydro-1H-dibenzo[de,h]isoquinolin-11-yl}amino)-4,6-dioxohexanoate]
- pIC50 [1]: < 5.00

SMILES: CN(C)CCN1C(=O)c2cccc3cc4cccc(NC(=O)OCCCCCl)c4c(c23)C1=O [Example 28, 4-chlorobutyl {2-[2-(dimethylamino)ethyl]-1,3-dioxo-2,3-dihydro-1H-dibenzo[de,h]isoquinolin-11-yl}carbamate]
- pIC50 [2]: < 5.00

SMILES: CN(C)CCN1C(=O)c2cccc3cc4cccc(NC(=S)Nc5ccc(Br)cc5)c4c(c23)C1=O [Example 30, 1-{2-[2-(dimethylamino)ethyl]-1,3-dioxo-2,3-dihydro-1H-dibenzo[de,h]isoquinolin-11-yl}-3-[4-bromophenyl]thiourea]
- pIC50 [2]: < 5.00

SMILES: COCCNC(=S)Nc1cccc2cc3cccc4c3c(c12)C(=O)N(CCN(C)C)C4=O [Example 32, 1-{2-[2-(dimethylamino)ethyl]-1,3-dioxo-2,3-dihydro-1H-dibenzo[de,h]isoquinolin-11-yl}-3-[2-methoxyethyl]thiourea]
- pIC50 [2]: 5.00 to 5.30

SMILES: CC(C)c1ccc(NC(=S)Nc2cccc3cc4cccc5c4c(c23)C(=O)N(CCN(C)C)C5=O)cc1 [Example 33, 1-{2-[2-(dimethylamino)ethyl]-1,3-dioxo-2,3-dihydro-1H-dibenzo[de,h]isoquinolin-11-yl}-3-[4-isopropylphenyl]thiourea]
- pIC50 [2]: < 5.00

SMILES: COc1ccc(NC(=S)Nc2cccc3cc4cccc5c4c(c23)C(=O)N(CCN(C)C)C5=O)cc1 [Example 34, 1-{2-[2-(dimethylamino)ethyl]-1,3-dioxo-2,3-dihydro-1H-dibenzo[de,h]isoquinolin-11-yl}-3-[4-methoxyphenyl]thiourea]
- pIC50 [2]: < 5.00

SMILES: CCNC(=S)Nc1cccc2cc3cccc4c3c(c12)C(=O)N(CCN(C)C)C4=O [Example 35, 1-{2-[2-(dimethylamino)ethyl]-1,3-dioxo-2,3-dihydro-1H-dibenzo[de,h]isoquinolin-11-yl}-3-[ethyl]thiourea]
- pIC50 [2]: < 5.00

SMILES: C=CCNC(=S)Nc1cccc2cc3cccc4c3c(c12)C(=O)N(CCN(C)C)C4=O [Example 36, 1-{2-[2-(dimethylamino)ethyl]-1,3-dioxo-2,3-dihydro-1H-dibenzo[de,h]isoquinolin-11-yl}-3-[allyl]thiourea]
- pIC50 [2]: < 5.00

SMILES: COc1ccccc1NC(=S)Nc1cccc2cc3cccc4c3c(c12)C(=O)N(CCN(C)C)C4=O [Example 37, 1-{2-[2-(dimethylamino)ethyl]-1,3-dioxo-2,3-dihydro-1H-dibenzo[de,h]isoquinolin-11-yl}-3-[2-methoxyphenyl]thiourea]
- pIC50 [2]: < 5.00

SMILES: CN(C)CCN1C(=O)c2cccc3cc4cccc(NC(=S)Nc5cccnc5)c4c(c23)C1=O [Example 38, 1-{2-[2-(dimethylamino)ethyl]-1,3-dioxo-2,3-dihydro-1H-dibenzo[de,h]isoquinolin-11-yl}-3-[3-pyridyl]thiourea]
- pIC50 [2]: < 5.00

SMILES: CN(C)CCN1C(=O)c2cccc3cc4cccc(NC(=S)Nc5ccc(Br)cc5OC(F)(F)F)c4c(c23)C1=O [Example 39, 1-{2-[2-(dimethylamino)ethyl]-1,3-dioxo-2,3-dihydro-1H-dibenzo[de,h]isoquinolin-11-yl}-3-[2-trifluoromethoxy4-bromophenyl]thiourea]
- pIC50 [2]: < 5.00

SMILES: CN(C)CCN1C(=O)c2cccc3cc4cccc(NC(=S)NCc5ccco5)c4c(c23)C1=O [Example 40, 1-{2-[2-(dimethylamino)ethyl]-1,3-dioxo-2,3-dihydro-1H-dibenzo[de,h]isoquinolin-11-yl}-3-[2-furylmethyl]thiourea]
- pIC50 [2]: 5.30 to 6.00

SMILES: CN(C)CCN1C(=O)c2cccc3cc4cccc(NC(=S)Nc5ccc(C(F)(F)F)cc5)c4c(c23)C1=O [Example 41, 1-{2-[2-(dimethylamino)ethyl]-1,3-dioxo-2,3-dihydro-1H-dibenzo[de,h]isoquinolin-11-yl}-3-[4-trifluoromethylphenyl]thiourea]
- pIC50 [2]: 5.30 to 6.00

SMILES: CN(C)CCN1C(=O)c2cccc3cc4cccc(NC(=S)Nc5ccc6nsnc6c5)c4c(c23)C1=O [Example 43, 1-(2,1,3-Benzothiadiazol-5-yl)-3-{2-[2-(dimethylamino)ethyl]-1,3-dioxo-2,3-dihydro-1H-dibenzo[de,h]isoquinolin-11-yl}thiourea]
- pIC50 [2]: 5.30 to 6.00

SMILES: CN(C)CCN1C(=O)c2cccc3cc4cccc(NC(=S)Nc5ccccc5OC(F)(F)F)c4c(c23)C1=O [Example 45, 1-{2-[2-(dimethylamino)ethyl]-1,3-dioxo-2,3-dihydro-1H-dibenzo[de,h]isoquinolin-11-yl}-3-[2-(trifluoromethoxy)phenyl]thiourea]
- pIC50 [2]: < 5.00
